Test results as given in patent publication US20240382452A1, “COMPOSITIONS AND DOSAGE FORMS FOR TOPICAL AND TRANSDERMAL DELIVERY OF ACTIVES AND METHODS OF USE” (priority 2021, published 2024).
Several values for one entry are separate records, joined by “and”; a condition that tells them apart may be missing. Identical values can stand only once.

Experiments:
[1] = Varespladib DMSO/ethanol pad applied to simulated viper bite on the inventor's calf; type: in vivo, human; conditions: 75 mg/mL in DMSO/ethanol, 2 mL on absorbent pad containing 4% lidocaine; patch applied 24 hours
Procedure: The free-acid of varespladib […] was dissolved at 100 mg/mL in DMSO, then diluted with ethanol to 75 mg/mL and 2 mL applied to an absorbent pad containing 4% lidocaine and applied to a simulated viper bite on the inventor's calf applied by penetration to 1 cm with 18 g hypodermic needles similar in depth to what would be experienced with a large viper's bite.

[2] = system: Oxyuranus scutellatus venom; test: Snake venom study, Oxyuranus scutellatus severe neurotoxicity, topical treatment; type: in vivo; conditions: individual mice #1-#4; in 80% DMSO/20% ethanol in <50% 2.5%/2.5% lidocaine/prilocaine cream +/- petrolatum cover
Excerpt: Additional studies used historical controls from earlier studies with venom doses from same lots:
Oxyuranus scutellatus severe neurotoxicity and 3-(5′-benzyl-2′-carbamoyl-[1,1′-biphenyl]-3-yl)-2-methylpropanoic acid as the racemic mixture in 80% DMSO/20% ethanol in <50% 2.5%/2.5% lidocaine/prilocaine cream+/−petrolatum cover (1 each).

With `CCc1c(C(=O)C(N)=O)c2c(OCC(=O)O)cccc2n1Cc1ccccc1` [varespladib] the “pain, discomfort or redness at wounded area” value [1] was “no pain, discomfort or redness”.
For `CC(Cc1cccc(-c2cc(Cc3ccccc3)ccc2C(N)=O)c1)C(=O)O` (racemic) [3-(5′-benzyl-2′-carbamoyl-[1,1′-biphenyl]-3-yl)-2-methylpropanoic acid], the Cessation of breathing [2] was 64 min and 44 min and 104 min and 111 min.
